Results reported in US20070021451A1, “Method for preventing or treating neurologic damage after spinal cord injury” (HAMAMATSU UNIVERSITY SCHOOL OF MEDICINE, priority 2005, published 2007).

Columns and labels:
[1] = tested on: Rabbit Model of Spinal Cord Ischemia; assay: Infarct size of spinal cords by TTC staining; type: in vivo, New Zealand White rabbits; conditions: for Infarct size as a percentage of the area of the whole gray matter: mid lumbar, 48 hours after spinal cord ischemia, control 54.7±19.8%
Description: Twenty-six male New Zealand White rabbits weighting 2.2 to 3.0 kg were used in this experiment. Spinal cord ischemia was induced by occluding the abdominal aorta with […] for 20 minutes just distal to the renal arteries. Surgical preparation was conducted according to the method described in the literature, Terada H. et. al., J. Thorac. Cardiovasc. Surg. 2001; 122: 979-85. A 24-gauge venous catheter was placed in the marginal ear vein for drug administration. The rabbits were anesthetized with intravenous sodium pentobarbital (25 mg/kg) and allowed to breathe spontaneously. Lidocaine (0.5%) was administered at the site of the skin incision as local anesthesia. The left common carotid artery was cannulated with a 24-gauge catheter for monitoring the arterial pressure. Core body temperature was continuously monitored with a rectal probe and was maintained at 38.5° C. with the aid of heating lamp. The infrarenal abdominal aorta was exposed through a transperitoneal approach. After systemic heparinization (200 U/kg), spinal cord ischemia was induced by occluding the abdominal aorta with […] for 20 minutes just distal to the renal arteries and just above the aortic bifurcation. Then, the […] released, and the flank was closed. […] The rabbits were assigned randomly to 1 of the 4 groups and subjected to the treatment of (1) above in the following manner. The sham group (n=3) underwent the same operation without aortic occlusion. The control group (n=7) received saline (1 ml) intravenously 15 minutes before aortic occlusion. NS-7 (1 mg/kg) was administered intravenously as a bolus dose 15 minutes before aortic occlusion in group A (n=8) or just after releasing the […] onset of reperfusion) in group B (n=8). All animals were killed by means of a lethal injection of pentobarbital (200 mg/kg) 48 hours after operation. […] The area of infarction was calculated with National Institutes of Health Image software. The infarct size was expressed as a percentage of the area of the whole gray matter. […]

[2] = tested on: Rabbit Model of Spinal Cord Ischemia; assay: Histopathologic examination (HE staining, semiquantitative histologic score); type: in vivo, New Zealand White rabbits
Description: Twenty-six male New Zealand White rabbits weighting 2.2 to 3.0 kg were used in this experiment. Spinal cord ischemia was induced by occluding the abdominal aorta with […] for 20 minutes just distal to the renal arteries. Surgical preparation was conducted according to the method described in the literature, Terada H. et. al., J. Thorac. Cardiovasc. Surg. 2001; 122: 979-85. A 24-gauge venous catheter was placed in the marginal ear vein for drug administration. The rabbits were anesthetized with intravenous sodium pentobarbital (25 mg/kg) and allowed to breathe spontaneously. Lidocaine (0.5%) was administered at the site of the skin incision as local anesthesia. The left common carotid artery was cannulated with a 24-gauge catheter for monitoring the arterial pressure. Core body temperature was continuously monitored with a rectal probe and was maintained at 38.5° C. with the aid of heating lamp. The infrarenal abdominal aorta was exposed through a transperitoneal approach. After systemic heparinization (200 U/kg), spinal cord ischemia was induced by occluding the abdominal aorta with […] for 20 minutes just distal to the renal arteries and just above the aortic bifurcation. Then, the […] released, and the flank was closed. […] The rabbits were assigned randomly to 1 of the 4 groups and subjected to the treatment of (1) above in the following manner. The sham group (n=3) underwent the same operation without aortic occlusion. The control group (n=7) received saline (1 ml) intravenously 15 minutes before aortic occlusion. NS-7 (1 mg/kg) was administered intravenously as a bolus dose 15 minutes before aortic occlusion in group A (n=8) or just after releasing the […] onset of reperfusion) in group B (n=8). All animals were killed by means of a lethal injection of pentobarbital (200 mg/kg) 48 hours after operation. Spinal cords were quickly harvested and sectioned from the low thoracic level to the low lumbar level into the following 4 segments: low thoracic (LT=T10-T12), upper lumbar (UL=L1-L2), mid lumbar (ML=L3-L4), and low lumbar (LL=L5-L6). […]

Structure (SMILES): Cc1cc(-c2ccc(F)cc2)cc(OCCCCCN2CCCCC2)n1.Cl [NS-7, 4-(4-Fluorophenyl)-2-methyl-6-(5-piperidinopentyloxy)pyridine hydrochloride]
- Infarct size as a percentage of the area of the whole gray matter ([1]; NS-7 1 mg/kg i.v. at the onset of reperfusion (group B)): 12.1±12.8%
- Infarct size as a percentage of the area of the whole gray matter ([1]; NS-7 1 mg/kg i.v. injected before ischemia (group A)): 14.0±14.3%
- Gray matter infarction in TTC-stained sections (FIG. 1) ([1]; NS-7 before ischemia or at the onset of reperfusion, mid lumbar level): Minimal gray matter infarction
- Cellular damage in HE-stained sections (FIG. 3) ([2]; NS-7 before ischemia or at the onset of reperfusion, mid lumbar): minimal evidence of cellular damage
- Histologic changes in the spinal cords ([2]; group A or group B, mid lumbar and low lumbar levels): only slight changes
- Average histologic scores ([2]; group A or group B, mid lumbar and low lumbar levels, vs control group (FIG. 4)): significantly lower than those of the control group
